Experimental data from patent publication US12077503B2, “Substituted cyclic amides and their use as herbicides” (FMC CORPORATION, priority 2015, dated 2024).

Legend:
Format in all cases: in vivo
[1] = tested on: wheat (Triticum aestivum); test: Test A postemergence; conditions: Triticum aestivum, post-emergence, 240 h, Postemergence, read-out: Plant response rating, Wheat
Method in brief: (§1)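 Each rating is a visual injury score from 0 to 100 given about 10 d after treatment, judged against untreated controls kept alongside in the greenhouse. In loam soil–sand blend, seeds got a preemergence directed soil spray, while postemergence plants were 2 to 10 cm tall at spraying.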

[2] = tested on: barnyardgrass (Echinochloa crus-galli); test: Test A postemergence; conditions: Echinochloa crus-galli, post-emergence, 240 h, Postemergence, read-out: Plant response rating, Barnyardgrass
Method in brief: as §1

[3] = tested on: Galium (catchweed bedstraw, Galium aparine); test: Test A postemergence; conditions: Galium, post-emergence, 240 h, Postemergence, read-out: Plant response rating, Galium
Method in brief: as §1

[4] = tested on: ryegrass, Italian (Italian ryegrass, Lolium multiflorum); test: Test A postemergence; conditions: Lolium multiflorum, post-emergence, 240 h, Postemergence, read-out: Plant response rating, Ryegrass, Italian
Method in brief: as §1

[5] = tested on: Kochia (Kochia scoparia); test: Test A postemergence; conditions: Bassia scoparia, post-emergence, 240 h, Postemergence, read-out: Plant response rating, Kochia
Method in brief: as §1

[6] = tested on: giant foxtail (Setaria faberii); test: Test A postemergence; conditions: Setaria faberi, post-emergence, 240 h, Postemergence, read-out: Plant response rating, Foxtail, Giant
Method in brief: as §1

[7] = tested on: blackgrass (Alopecurus myosuroides); test: Test A postemergence; conditions: Alopecurus myosuroides, post-emergence, 240 h, Postemergence, read-out: Plant response rating, Blackgrass
Method in brief: as §1

[8] = tested on: pigweed (Amaranthus retroflexus); test: Test A postemergence; conditions: Amaranthus retroflexus, post-emergence, 240 h, Postemergence, read-out: Plant response rating, Pigweed
Method in brief: as §1

[9] = tested on: ragweed (common ragweed, Ambrosia elatior); test: Test A postemergence; conditions: Ambrosia artemisiifolia, post-emergence, 240 h, Postemergence, read-out: Plant response rating, Ragweed
Method in brief: as §1

[10] = tested on: corn (Zea mays); test: Test A postemergence; conditions: Zea mays, post-emergence, 240 h, Postemergence
Method in brief: as §1

[11] = tested on: barnyardgrass (Echinochloa crus-galli); test: Test A preemergence; conditions: Echinochloa crus-galli, pre-emergence, 240 h, Preemergence
Method in brief: as §1

[12] = tested on: ryegrass, Italian (Italian ryegrass, Lolium multiflorum); test: Test A preemergence; conditions: Lolium multiflorum, pre-emergence, 240 h, Preemergence
Method in brief: as §1

[13] = tested on: Kochia (Kochia scoparia); test: Test A preemergence; conditions: Bassia scoparia, pre-emergence, 240 h, Preemergence
Method in brief: as §1

[14] = tested on: giant foxtail (Setaria faberii); test: Test A preemergence; conditions: Setaria faberi, pre-emergence, 240 h, Preemergence
Method in brief: as §1

[15] = tested on: pigweed (Amaranthus retroflexus); test: Test A preemergence; conditions: Amaranthus retroflexus, pre-emergence, 240 h, Preemergence
[16] = tested on: ragweed (common ragweed, Ambrosia elatior); test: Test A preemergence; conditions: Ambrosia artemisiifolia, pre-emergence, 240 h, Preemergence
Method in brief: as §1

[17] = tested on: barnyardgrass (Echinochloa crus-galli); test: Test B flooded paddy test; conditions: Echinochloa crus-galli, Flood, 250 g ai/ha; scale of 0 to 100 where 0 is no effect and 100 is complete control; read-out: Barnyardgrass plant response rating
Method in brief: (§2)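 Compound goes directly into floodwater once pots are flooded 3 cm above soil, targeting plants at two leaves; the water depth is then held for the test duration. Plants sit 13–15 d in a greenhouse and are rated visually, 100 denoting complete control.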

[18] = tested on: ducksalad (Heteranthera limosa); test: Test B flooded paddy test; conditions: Heteranthera limosa, Flood, 250 g ai/ha; scale of 0 to 100 where 0 is no effect and 100 is complete control; read-out: Ducksalad plant response rating
Method in brief: as §2

[19] = tested on: rice (Oryra sativa); test: Test B flooded paddy test; conditions: Oryza sativa, Flood, 250 g ai/ha; scale of 0 to 100 where 0 is no effect and 100 is complete control; read-out: Rice plant response rating
Method in brief: as §2

[20] = tested on: sedge, umbrella (small-flower umbrella sedge, Cyperus difformis); test: Test B flooded paddy test; conditions: Cyperus difformis, Flood, 250 g ai/ha; scale of 0 to 100 where 0 is no effect and 100 is complete control; read-out: Sedge, Umbrella plant response rating
Method in brief: as §2

[21] = 125 g ai/ha, visual injury after approximately 10 d, 0 to 100 scale where 0 is no effect and 100 is complete control
[22] = 31 g ai/ha, visual injury after approx. 10 d, 0 to 100 scale, 0 no effect, 100 complete control

## CC(C)Oc1cc([C@H]2CN(C)C(=O)[C@@H]2C(=O)Nc2cccc(F)c2F)cc(C(F)(F)F)c1 [Compound 972]
[1]; [21]
  plant injury at 125 g/ha: 40%
[1]; [22]
  plant injury at 31 g/ha: 20%
[2]; [21]
  pest or weed control at 125 g/ha: 50%
[2]; [22]
  pest or weed control at 31 g/ha: 50%
[3]; [21]
  pest or weed control at 125 g/ha: 30%
[3]; [22]
  pest or weed control at 31 g/ha: 0%
[4]; [21]
  pest or weed control at 125 g/ha: 20%
[4]; [22]
  pest or weed control at 31 g/ha: 0%
[5]; [21]
  pest or weed control at 125 g/ha: 0%
[5]; [22]
  pest or weed control at 31 g/ha: 0%
[6]; [21]
  pest or weed control at 125 g/ha: 60%
[6]; [22]
  pest or weed control at 31 g/ha: 30%
[7]; [21]
  pest or weed control at 125 g/ha: 0%
[7]; [22]
  pest or weed control at 31 g/ha: 0%
[8]; [21]
  pest or weed control at 125 g/ha: 30%
[8]; [22]
  pest or weed control at 31 g/ha: 20%
[9]; [21]
  pest or weed control at 125 g/ha: 30%
[9]; [22]
  pest or weed control at 31 g/ha: 0%
[10]; [21]
  Corn plant response rating (crop injury, 0 = no effect, 100 = complete kill) at 125 g/ha: 60%
[10]; [22]
  Corn plant response rating (crop injury, 0 = no effect, 100 = complete kill) at 31 g/ha: 20%
[11]; 125 g ai/ha, visual injury rating after approximately 10 d, read-out: Barnyardgrass plant response rating (0 to 100 scale, 0 is no effect, 100 is complete control)
  pest or weed control at 125 g/ha: 80%
[11]; 31 g ai/ha, 0 to 100 scale (0 no effect, 100 complete control), read-out: Plant response rating, Barnyardgrass
  pest or weed control at 31 g/ha: 70%
[12]; 125 g ai/ha, visual injury rating after approximately 10 d, read-out: Ryegrass, Italian plant response rating (0 to 100 scale, 0 is no effect, 100 is complete control)
  pest or weed control at 125 g/ha: 90%
[12]; 31 g ai/ha, 0 to 100 scale (0 no effect, 100 complete control), read-out: Plant response rating, Ryegrass, Italian
  pest or weed control at 31 g/ha: 50%
[13]; 125 g ai/ha, visual injury rating after approximately 10 d, read-out: Kochia plant response rating (0 to 100 scale, 0 is no effect, 100 is complete control)
  pest or weed control at 125 g/ha: 0%
[13]; 31 g ai/ha, 0 to 100 scale (0 no effect, 100 complete control), read-out: Plant response rating, Kochia
  pest or weed control at 31 g/ha: 0%
[14]; 125 g ai/ha, visual injury rating after approximately 10 d, read-out: Foxtail, Giant plant response rating (0 to 100 scale, 0 is no effect, 100 is complete control)
  pest or weed control at 125 g/ha: 80%
[14]; 31 g ai/ha, 0 to 100 scale (0 no effect, 100 complete control), read-out: Plant response rating, Foxtail, Giant
  pest or weed control at 31 g/ha: 80%
[15]; 125 g ai/ha, visual injury rating after approximately 10 d, read-out: Pigweed plant response rating (0 to 100 scale, 0 is no effect, 100 is complete control)
  pest or weed control at 125 g/ha: 0%
[15]; 31 g ai/ha, 0 to 100 scale (0 no effect, 100 complete control), read-out: Plant response rating, Pigweed
  pest or weed control at 31 g/ha: 0%
[16]; 125 g ai/ha, visual injury rating after approximately 10 d, read-out: Ragweed plant response rating (0 to 100 scale, 0 is no effect, 100 is complete control)
  pest or weed control at 125 g/ha: 20%
[16]; 31 g ai/ha, 0 to 100 scale (0 no effect, 100 complete control), read-out: Plant response rating, Ragweed
  pest or weed control at 31 g/ha: 0%
[17]
  pest or weed control at 250 g/ha: 80%
[18]
  pest or weed control at 250 g/ha: 85%
[19]
  pest or weed control at 250 g/ha: 50%
[20]
  pest or weed control at 250 g/ha: 0%
